US11912693B2, “Compounds for modulating S1P1 activity and methods of using the same” (TREVENA, INC., priority 2017, dated 2024)

How the values were obtained:
[1] = biological target: T1, human sphingosine-1-phosphate receptor 1 (S1P1) (Homo sapiens (Human), UniProt P21453); test: β-Arrestin2 recruitment assay (PathHunter), S1P1 CHO-K1 cells; type: cell-based; conditions: for Emax: CHO-K1, efficacy (SPAN) normalized to fingolimod, read-out: hS1P1 B-arrestin2 SPAN; for hS1P1 B-arrestin2 pEC50: β-arrestin2 recruitment, S1P1 CHO-K1 cells
Summary of the method: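 Enzyme-fragment complementation read-out: agonist-driven β-arrestin2 binding to ProLink-tagged human S1P1 in stable CHO-K1 cells restores β-galactosidase, measured 1 h at room temperature after a 60 min 37° C. compound incubation. Potency as pEC50, efficacy relative to fingolimod (SPAN).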
Target sequence in this assay (P21453 whole entry, looked up, the tested form may be a part): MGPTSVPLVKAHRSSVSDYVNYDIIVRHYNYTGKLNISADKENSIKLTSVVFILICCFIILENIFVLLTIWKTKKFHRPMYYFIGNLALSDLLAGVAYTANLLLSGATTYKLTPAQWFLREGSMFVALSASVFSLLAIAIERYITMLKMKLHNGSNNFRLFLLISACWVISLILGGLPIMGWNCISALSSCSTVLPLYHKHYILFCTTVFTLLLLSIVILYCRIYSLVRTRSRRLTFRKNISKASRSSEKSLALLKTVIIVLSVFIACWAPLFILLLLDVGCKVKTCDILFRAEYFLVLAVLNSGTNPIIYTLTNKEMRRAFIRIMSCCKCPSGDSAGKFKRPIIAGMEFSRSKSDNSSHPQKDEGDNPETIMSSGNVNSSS
Target sequence in this assay (P32121 whole entry partner, looked up, the tested form may be a part): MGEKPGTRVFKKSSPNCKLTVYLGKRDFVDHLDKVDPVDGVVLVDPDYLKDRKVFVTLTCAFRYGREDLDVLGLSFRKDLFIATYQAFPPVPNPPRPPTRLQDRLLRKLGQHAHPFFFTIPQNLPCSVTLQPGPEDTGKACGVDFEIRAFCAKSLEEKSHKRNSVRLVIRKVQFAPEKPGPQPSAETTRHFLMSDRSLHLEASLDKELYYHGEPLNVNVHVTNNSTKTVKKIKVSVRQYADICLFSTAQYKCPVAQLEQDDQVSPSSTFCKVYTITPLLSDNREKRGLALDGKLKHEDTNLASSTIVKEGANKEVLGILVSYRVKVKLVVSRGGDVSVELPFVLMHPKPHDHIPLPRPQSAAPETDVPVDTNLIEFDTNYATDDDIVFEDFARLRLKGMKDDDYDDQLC

[2] = biological target: T1, human sphingosine-1-phosphate receptor 1 (S1P1); test: Inhibition of cAMP production (HTRF cAMP HiRange), S1P1 CHO-K1 cells; type: cell-based; conditions: for Emax: CHO-K1, efficacy (SPAN) normalized to fingolimod, read-out: hS1P1 cAMP SPAN; for hS1P1 cAMP pEC50: inhibition of cAMP production, S1P1 CHO-K1 cells
Summary of the method: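 CHO-K1 cells stably co-expressing human S1P1 (C-terminal Prolink tag) and EA-β-arrestin2 were grown in AssayComplete Media 6 at 37° C. and 5% CO2, plated, and incubated overnight. Agonist-driven inhibition of intracellular cAMP was read by TR-FRET with the HTRF cAMP HiRange kit on a PheraStar reader. Potency is pEC50, and efficacy (SPAN) is normalized to fingolimod.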
Target sequence in this assay (P21453 whole entry, looked up, the tested form may be a part): as the sequence (P21453 whole entry, looked up, the tested form may be a part) above

## FC(F)(F)c1cc(Br)ccc1-c1noc(-c2ccc3c(c2)nnn3C2CCCC2)n1 [Compound 114, 5-{3-[4-bromo-2-(trifluoromethyl)phenyl]-1,2,4-oxadiazol-5-yl}-1-cyclopentyl-1H-1,2,3-benzotriazole]
[1]
  Emax: < 75%
  hS1P1 B-arrestin2 pEC50: <5
[2]
  Emax: < 75%
  hS1P1 cAMP pEC50: <6.5

## Brc1ccccc1-c1nc(-c2ccc3c(c2)nnn3C2CCCCC2)no1 [Compound 115, 5-(2-bromophenyl)-3-(1-cyclohexyl-1H-benzo[d][1,2,3]triazol-5-yl)-1,2,4-oxadiazole]
[1]
  Emax: > 75%
  hS1P1 B-arrestin2 pEC50: >5
[2]
  Emax: > 75%
  hS1P1 cAMP pEC50: >6.5

## COc1cc(-c2nc(-c3ccc4c(c3)nnn4C(C)C)no2)ccn1 [Compound 116, 3-(1-isopropyl-1H-benzo[d][1,2,3]triazol-5-yl)-5-(2-methoxypyridin-4-yl)-1,2,4-oxadiazole]
[1]
  Emax: < 75%
  hS1P1 B-arrestin2 pEC50: <5
[2]
  Emax: < 75%
  hS1P1 cAMP pEC50: <6.5

## Cc1ccc(-c2noc(-c3ccc4c(c3)nnn4C3CCCCC3)n2)cc1 [Compound 117, 1-cyclohexyl-5-[3-(4-methylphenyl)-1,2,4-oxadiazol-5-yl]-1H-1,2,3-benzotriazole]
[1]
  Emax: < 75%
  hS1P1 B-arrestin2 pEC50: <5
[2]
  Emax: < 75%
  hS1P1 cAMP pEC50: <6.5

## FC(F)(F)c1cccc(-c2noc(-c3ccc4c(c3)nnn4C3CCCC3)n2)c1 [Compound 118, 1-cyclopentyl-5-{3-[3-(trifluoromethyl)phenyl]-1,2,4-oxadiazol-5-yl}-1H-1,2,3-benzotriazole]
[1]
  hS1P1 B-arrestin2 pEC50: <5
[2]
  hS1P1 cAMP pEC50: <6.5

## Cc1ccc(-c2nc(-c3ccc4c(c3)nnn4C(C)C)no2)cn1 [Compound 119, 3-(1-isopropyl-1H-benzo[d][1,2,3]triazol-5-yl)-5-(6-methylpyridin-3-yl)-1,2,4-oxadiazole]
[1]
  Emax: < 75%
  hS1P1 B-arrestin2 pEC50: <5
[2]
  Emax: < 75%
  hS1P1 cAMP pEC50: <6.5

## COc1ccccc1-c1nc(-c2ccc3c(c2)nnn3C2CCCC2)no1 [Compound 120, 3-(1-cyclopentyl-1H-benzo[d][1,2,3]triazol-5-yl)-5-(2-methoxyphenyl)-1,2,4-oxadiazole]
[1]
  Emax: > 75%
  hS1P1 B-arrestin2 pEC50: >5
[2]
  Emax: > 75%
  hS1P1 cAMP pEC50: >6.5

## CC(C)Oc1ccc(-c2nc(-c3ccc4c(c3)nnn4C3CCCC3)no2)cc1 [Compound 121, 3-(1-cyclopentyl-1H-benzo[d][1,2,3]triazol-5-yl)-5-(4-isopropoxyphenyl)-1,2,4-oxadiazole]
[1]
  Emax: < 75%
  hS1P1 B-arrestin2 pEC50: <5
[2]
  Emax: < 75%
  hS1P1 cAMP pEC50: <6.5

## CC(C)CCn1nnc2cc(-c3nc(-c4ccc(C(F)(F)F)c(F)c4)no3)ccc21 [Compound 122, 5-{3-[3-fluoro-4-(trifluoromethyl)phenyl]-1,2,4-oxadiazol-5-yl}-1-(3-methylbutyl)-1H-1,2,3-benzotriazole]
[1]
  Emax: < 75%
  hS1P1 B-arrestin2 pEC50: <5
[2]
  Emax: < 75%
  hS1P1 cAMP pEC50: <6.5

## COc1cccc(-c2noc(-c3ccc4c(c3)nnn4C3CCCC3)n2)n1 [Compound 124, 1-cyclopentyl-5-[3-(6-methoxypyridin-2-yl)-1,2,4-oxadiazol-5-yl]-1H-1,2,3-benzotriazole]
[1]
  Emax: < 75%
  hS1P1 B-arrestin2 pEC50: <5
[2]
  Emax: < 75%
  hS1P1 cAMP pEC50: <6.5

## CC(C)n1nnc2cc(-c3noc(C4CCC(F)(F)CC4)n3)ccc21 [Compound 125, 5-[5-(4,4-difluorocyclohexyl)-1,2,4-oxadiazol-3-yl]-1-(propan-2-yl)-1H-1,2,3-benzotriazole]
[1]
  Emax: < 75%
  hS1P1 B-arrestin2 pEC50: <5
[2]
  Emax: < 75%
  hS1P1 cAMP pEC50: <6.5

## Cc1cc(C)cc(Cc2noc(-c3ccc4c(c3)nnn4C(C)C)n2)c1 [Compound 126, 5-{3-[(3,5-dimethylphenyl)methyl]-1,2,4-oxadiazol-5-yl}-1-(propan-2-yl)-1H-1,2,3-benzotriazole]
[1]
  Emax: < 75%
  hS1P1 B-arrestin2 pEC50: <5
[2]
  Emax: < 75%
  hS1P1 cAMP pEC50: <6.5

## CC(C)n1nnc2cc(-c3noc(C4CCCCC4)n3)ccc21 [Compound 127, 5-(5-cyclohexyl-1,2,4-oxadiazol-3-yl)-1-(propan-2-yl)-1H-1,2,3-benzotriazole]
[1]
  Emax: < 75%
  hS1P1 B-arrestin2 pEC50: <5
[2]
  Emax: < 75%
  hS1P1 cAMP pEC50: <6.5

## CC(C)n1nnc2cc(-c3nc(-c4ccc5nncn5c4)no3)ccc21 [Compound 128, 1-(propan-2-yl)-5-(3-{[1,2,4]triazolo[4,3-a]pyridin-6-yl}-1,2,4-oxadiazol-5-yl)-1H-1,2,3-benzotriazole]
[1]
  Emax: < 75%
  hS1P1 B-arrestin2 pEC50: <5
[2]
  Emax: < 75%
  hS1P1 cAMP pEC50: <6.5

## COc1ccc(-c2noc(-c3ccc4c(c3)nnn4C(C)C)n2)c2ccccc12 [Compound 129, 5-[3-(4-methoxynaphthalen-1-yl)-1,2,4-oxadiazol-5-yl]-1-(propan-2-yl)-1H-1,2,3-benzotriazole]
[1]
  Emax: < 75%
  hS1P1 B-arrestin2 pEC50: <5
[2]
  Emax: < 75%
  hS1P1 cAMP pEC50: <6.5

## COc1cccc(-c2nc(-c3ccc4c(c3)nnn4C3CCCC3)no2)c1 [Compound 130, 3-(1-cyclopentyl-1H-benzo[d][1,2,3]triazol-5-yl)-5-(3-methoxyphenyl)-1,2,4-oxadiazole]
[1]
  Emax: < 75%
  hS1P1 B-arrestin2 pEC50: <5
[2]
  Emax: < 75%
  hS1P1 cAMP pEC50: <6.5

## CC(C)n1nnc2cc(-c3noc(-c4ccc(COc5ccccc5)cc4)n3)ccc21 [Compound 131, 3-(1-isopropyl-1H-benzo[d][1,2,3]triazol-5-yl)-5-(4-(phenoxymethyl)phenyl)-1,2,4-oxadiazole]
[1]
  Emax: < 75%
  hS1P1 B-arrestin2 pEC50: <5
[2]
  Emax: < 75%
  hS1P1 cAMP pEC50: <6.5

## CC(C)n1nnc2cc(-c3nc(-c4ccccc4OC(F)(F)F)no3)ccc21 [Compound 132, 5-(1-isopropyl-1H-benzo[d][1,2,3]triazol-5-yl)-3-(2-(trifluoromethoxy)phenyl)-1,2,4-oxadiazole]
[1]
  Emax: > 75%
  hS1P1 B-arrestin2 pEC50: >5
[2]
  Emax: > 75%
  hS1P1 cAMP pEC50: >6.5

## Cc1ncc(-c2nc(-c3ccc4c(c3)nnn4C(C)C)no2)nc1C [Compound 133, 5-(5,6-dimethylpyrazin-2-yl)-3-(1-isopropyl-1H-benzo[d][1,2,3]triazol-5-yl)-1,2,4-oxadiazole]
[1]
  Emax: < 75%
  hS1P1 B-arrestin2 pEC50: <5
[2]
  Emax: < 75%
  hS1P1 cAMP pEC50: <6.5

## O=C(O)CCn1nnc2cc(-c3noc(-c4ccccc4Br)n3)ccc21 [Compound 134, 3-(5-(5-(2-bromophenyl)-1,2,4-oxadiazol-3-yl)-1H-benzo[d][1,2,3]triazol-1-yl)propanoic acid]
[1]
  Emax: < 75%
  hS1P1 B-arrestin2 pEC50: <5
[2]
  Emax: < 75%
  hS1P1 cAMP pEC50: <6.5

## CCc1ncc(-c2noc(-c3ccc4c(c3)nnn4C(C)C)n2)cn1 [Compound 135, 5-[3-(2-ethylpyrimidin-5-yl)-1,2,4-oxadiazol-5-yl]-1-(propan-2-yl)-1H-1,2,3-benzotriazole]
[1]
  Emax: < 75%
  hS1P1 B-arrestin2 pEC50: <5
[2]
  Emax: < 75%
  hS1P1 cAMP pEC50: <6.5

## COc1cc(C)c(-c2noc(-c3ccc4c(c3)nnn4C(C)C)n2)c(OC)c1 [Compound 136, 5-[3-(2,4-dimethoxy-6-methylphenyl)-1,2,4-oxadiazol-5-yl]-1-(propan-2-yl)-1H-1,2,3-benzotriazole]
[1]
  Emax: < 75%
  hS1P1 B-arrestin2 pEC50: <5
[2]
  Emax: < 75%
  hS1P1 cAMP pEC50: <6.5

## CCC1(CC)CC(=O)c2cc(-c3nsc(-c4cccnc4)n3)ccc2O1 [Compound 137, 2,2-diethyl-6-(5-(pyridin-3-yl)-1,2,4-thiadiazol-3-yl)chroman-4-one]
[1]
  Emax: > 75%
  hS1P1 B-arrestin2 pEC50: <5
[2]
  Emax: > 75%
  hS1P1 cAMP pEC50: >6.5

## COc1ccccc1-c1nc(-c2ccc3c(c2)nnn3C(C)C)ns1 [Compound 138, 5-[5-(2-methoxyphenyl)-1,2,4-thiadiazol-3-yl]-1-(propan-2-yl)-1H-1,2,3-benzotriazole]
[1]
  Emax: > 75%
  hS1P1 B-arrestin2 pEC50: >5
[2]
  Emax: > 75%
  hS1P1 cAMP pEC50: >6.5

## Cc1ccccc1-c1noc(-c2ccc3c(c2)nnn3CC(C)(C)O)n1 [Compound 139, 2-methyl-1-{5-[3-(2-methylphenyl)-1,2,4-oxadiazol-5-yl]-1H-1,2,3-benzotriazol-1-yl}propan-2-ol]
[1]
  Emax: > 75%
  hS1P1 B-arrestin2 pEC50: >5
[2]
  Emax: > 75%
  hS1P1 cAMP pEC50: >6.5

## Cc1ccsc1-c1noc(-c2ccc3c(c2)nnn3CC(C)(C)O)n1 [Compound 140, 2-methyl-1-{5-[3-(3-methylthiophen-2-yl)-1,2,4-oxadiazol-5-yl]-1H-1,2,3-benzotriazol-1-yl}propan-2-ol]
[1]
  Emax: > 75%
  hS1P1 B-arrestin2 pEC50: >5
[2]
  Emax: > 75%
  hS1P1 cAMP pEC50: >6.5

## CCC1(CC)CC(=O)c2cc(-c3nsc(-c4ccc5c(c4)nnn5C(C)C)n3)ccc2O1 [Compound 143, 2,2-diethyl-6-(5-(1-isopropyl-1H-benzo[d][1,2,3]triazol-5-yl)-1,2,4-thiadiazol-3-yl)chroman-4-one]
[1]
  Emax: < 75%
  hS1P1 B-arrestin2 pEC50: <5
[2]
  Emax: < 75%
  hS1P1 cAMP pEC50: <6.5
